Laboratory results as given in patent publication US9833497B2, “Human originated EGF domain proteins and use of the same” (CHENGDU SOURCEBIO LIMITED-LIABILITY COMPANY, priority 2013, dated 2017).

Columns and labels:
Format in all cases: cell-based
Pseudomonas aeruginosa = assay: MIC against Gram-negative bacteria: Pseudomonas aeruginosa
Procedure, shortened: (§1)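 Inocula prepared by growing LB cultures at 37° C to 0.5 McFarland, centrifuging at 4000×g, and resuspending in fresh medium. Final density 5×10^5 CFU/mL per well with two-fold dilutions of purified EGF domain protein; shaking incubation at 37° C.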

Proteus mirabilis = assay: MIC against Gram-negative bacteria: Proteus mirabilis
Procedure, shortened: as §1

E. coli DH5α = assay: Antibacterial activity: MIC and growth curve against E. coli DH5α in 96-well plate; conditions: minimal inhibitory concentration against E. coli DH5α; 96-well plate, 5×10^5 CFU/mL, 37° C., judged after 8 h
Procedure, shortened: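 Log-phase bacteria (OD600 ~0.5) resuspended in LB at 5×10^5 CFU/mL, exposed to recombinant protein at 50, 25, 12.5 μg/mL final in triplicate, 37 °C shaking at 175 rpm. OD600 read every 30 min; MIC is lowest concentration showing no growth.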

Klebsiella pneumonia = assay: MIC against Gram-negative bacteria: Klebsiella pneumonia
Procedure, shortened: as §1

Serratia marcescens = assay: MIC against Gram-negative bacteria: Serratia marcescens
Procedure, shortened: as §1

Proteus vulgaris = assay: MIC against Gram-negative bacteria: Proteus vulgaris
Procedure, shortened: as §1

Moraxella catarrhalis = assay: MIC against Gram-negative bacteria: Moraxella catarrhalis
Procedure, shortened: as §1

Citrobacter diversus = assay: MIC against Gram-negative bacteria: Citrobacter diversus
Procedure, shortened: as §1

E. coli BL21 = assay: MIC against Gram-negative bacteria: E. coli BL21; conditions: E. coli BL21
Procedure, shortened: as §1

Aeromonas hydrophila = assay: MIC against Gram-negative bacteria: Aeromonas hydrophila
Procedure, shortened: as §1

Enterobacter cloacae = assay: MIC against Gram-negative bacteria: Enterobacter cloacae
Procedure, shortened: as §1

[1] = Pseudomonas aeruginosa, 96-well plate, 5×10^5 CFU/mL, 37° C., 10 h
[2] = Proteus mirabilis, 96-well plate, 5×10^5 CFU/mL, 37° C., 10 h
[3] = Klebsiella pneumonia, 96-well plate, 5×10^5 CFU/mL, 37° C., 10 h
[4] = Serratia marcescens, 96-well plate, 5×10^5 CFU/mL, 37° C., 10 h
[5] = Proteus vulgaris, 96-well plate, 5×10^5 CFU/mL, 37° C., 10 h
[6] = Moraxella catarrhalis, 96-well plate, 5×10^5 CFU/mL, 37° C., 10 h
[7] = Citrobacter diversus, 96-well plate, 5×10^5 CFU/mL, 37° C., 10 h
[8] = 96-well plate, 5×10^5 CFU/mL, 37° C., 10 h
[9] = Aeromonas hydrophila, 96-well plate, 5×10^5 CFU/mL, 37° C., 10 h
[10] = Enterobacter cloacae, 96-well plate, 5×10^5 CFU/mL, 37° C., 10 h
[11] = P. aeruginosa, 10 h cultivation at 37° C.
[12] = P. mirabilis, 10 h cultivation at 37° C.
[13] = K. pneumonia, 10 h cultivation at 37° C.
[14] = S. marcescens, 10 h cultivation at 37° C.
[15] = P. vulgaris, 10 h cultivation at 37° C.
[16] = M. catarrhalis, 10 h cultivation at 37° C.
[17] = C. diversus, 10 h cultivation at 37° C.
[18] = A. hydrophila, 10 h cultivation at 37° C.
[19] = E. cloacae, 10 h cultivation at 37° C.

With “PRT63 (GCNFNNGGCHQDCFEGGDGSFLCGCRPGFRLLDDLVTCA; listed as Homo sapiens)” the “MIC (μg/mL) P. aeruginosa” value (Pseudomonas aeruginosa; [1]) was 12.5 µg/mL, the “MIC (μg/mL) P. mirabilis” value (Proteus mirabilis; [2]) was 12.5 µg/mL and the MIC (E. coli DH5α) was 12.5 µg/mL. For the same substance, the “MIC (μg/mL) K. pneumonia” value (Klebsiella pneumonia; [3]) was 25 µg/mL, the “MIC (μg/mL) S. marcescens” value (Serratia marcescens; [4]) was 12.5 µg/mL and the “MIC (μg/mL) P. vulgaris” value (Proteus vulgaris; [5]) was 25 µg/mL. The “MIC (μg/mL) M. catarrhalis” value (Moraxella catarrhalis; [6]) was 25 µg/mL, the “MIC (μg/mL) C. diversus” value (Citrobacter diversus; [7]) was 12.5 µg/mL and the “MIC (μg/mL) E. coli BL21” value (E. coli BL21; [8]) was 25 µg/mL. For the same substance, the “MIC (μg/mL) A. hydrophila” value (Aeromonas hydrophila; [9]) was 25 µg/mL and the “MIC (μg/mL) E. cloacae” value (Enterobacter cloacae; [10]) was 12.5 µg/mL.

“PRT214 (DDNECGNLTQSCGENANCTNTEGSYYCMCVPGFRSSSNQDRFITNDGTVCI; listed as Homo sapiens)” was tested, and the “MIC (μg/mL) P. aeruginosa” value (Pseudomonas aeruginosa; P. aeruginosa, 10 h cultivation at 37° C., 5×10^5 CFU/mL) was 12.5 µg/mL, the “MIC (μg/mL) P. mirabilis” value (Proteus mirabilis; P. mirabilis, 10 h cultivation at 37° C., 5×10^5 CFU/mL) was 12.5 µg/mL and the MIC (E. coli DH5α) was 12.5 µg/mL. The “MIC (μg/mL) K. pneumonia” value (Klebsiella pneumonia; K. pneumonia, 10 h cultivation at 37° C., 5×10^5 CFU/mL) was 25 µg/mL, the “MIC (μg/mL) S. marcescens” value (Serratia marcescens; S. marcescens, 10 h cultivation at 37° C., 5×10^5 CFU/mL) was 12.5 µg/mL and the “MIC (μg/mL) P. vulgaris” value (Proteus vulgaris; P. vulgaris, 10 h cultivation at 37° C., 5×10^5 CFU/mL) was 25 µg/mL. The “MIC (μg/mL) M. catarrhalis” value (Moraxella catarrhalis; M. catarrhalis, 10 h cultivation at 37° C., 5×10^5 CFU/mL) was 25 µg/mL, the “MIC (μg/mL) C. diversus” value (Citrobacter diversus; C. diversus, 10 h cultivation at 37° C., 5×10^5 CFU/mL) was 12.5 µg/mL and the “MIC (μg/mL) E. coli BL21” value (E. coli BL21; 10 h cultivation at 37° C., 5×10^5 CFU/mL) was 25 µg/mL. For the same substance, the “MIC (μg/mL) A. hydrophila” value (Aeromonas hydrophila; A. hydrophila, 10 h cultivation at 37° C., 5×10^5 CFU/mL) was 25 µg/mL and the “MIC (μg/mL) E. cloacae” value (Enterobacter cloacae; E. cloacae, 10 h cultivation at 37° C., 5×10^5 CFU/mL) was 12.5 µg/mL.

For “PRT10 (NCSAQCHNHGVCNHKQECHCHAGWAPPHCA; listed as Homo sapiens)”, the “MIC (μg/mL) P. aeruginosa” value (Pseudomonas aeruginosa; [1]) was 12.5 µg/mL, the “MIC (μg/mL) P. mirabilis” value (Proteus mirabilis; [2]) was 12.5 µg/mL and the MIC (E. coli DH5α) was 25 µg/mL. The “MIC (μg/mL) K. pneumonia” value (Klebsiella pneumonia; [3]) was 50 µg/mL, the “MIC (μg/mL) S. marcescens” value (Serratia marcescens; [4]) was 12.5 µg/mL and the “MIC (μg/mL) P. vulgaris” value (Proteus vulgaris; [5]) was 25 µg/mL. The “MIC (μg/mL) M. catarrhalis” value (Moraxella catarrhalis; [6]) was 12.5 µg/mL, the “MIC (μg/mL) C. diversus” value (Citrobacter diversus; [7]) was 25 µg/mL and the “MIC (μg/mL) E. coli BL21” value (E. coli BL21; [8]) was 50 µg/mL. For the same substance, the “MIC (μg/mL) A. hydrophila” value (Aeromonas hydrophila; [9]) was 50 µg/mL and the “MIC (μg/mL) E. cloacae” value (Enterobacter cloacae; [10]) was 12.5 µg/mL.

For “PRT1198 (EHDECGSGQHNCDENAICTNTVQGHSCTCKPGYVGNGTICR; listed as Homo sapiens)”, the “MIC against P. aeruginosa” value (Pseudomonas aeruginosa; [1]) was 25 µg/mL, the “MIC against P. mirabilis” value (Proteus mirabilis; [2]) was 50 µg/mL and the MIC (E. coli DH5α) was 25 µg/mL. For the same substance, the “MIC against K. pneumonia” value (Klebsiella pneumonia; [3]) was 50 µg/mL, the “MIC against S. marcescens” value (Serratia marcescens; [4]) was 12.5 µg/mL and the “MIC against P. vulgaris” value (Proteus vulgaris; [5]) was 25 µg/mL. For the same substance, the “MIC against M. catarrhalis” value (Moraxella catarrhalis; [6]) was 12.5 µg/mL, the “MIC against C. diversus” value (Citrobacter diversus; [7]) was 25 µg/mL and the “MIC against E. coli BL21” value (E. coli BL21; [8]) was 12.5 µg/mL. For the same substance, the “MIC against A. hydrophila” value (Aeromonas hydrophila; [9]) was 50 µg/mL and the “MIC against E. cloacae” value (Enterobacter cloacae; [10]) was 12.5 µg/mL.

Substance “PRT910 (EIDECLSHPCQNGGTCLDLPNTYKCSCPRGTQGVHCE; listed as Homo sapiens)” has an MIC (Pseudomonas aeruginosa; [11]) of 12.5 µg/mL, an MIC (Proteus mirabilis; [12]) of 25 µg/mL and an MIC (E. coli DH5α) of 50 µg/mL. The MIC (Klebsiella pneumonia; [13]) was 25 µg/mL, the MIC (Serratia marcescens; [14]) was 25 µg/mL and the MIC (Proteus vulgaris; [15]) was 25 µg/mL. The MIC (Moraxella catarrhalis; [16]) was 12.5 µg/mL, the MIC (Citrobacter diversus; [17]) was 25 µg/mL and the MIC (E. coli BL21; 10 h cultivation at 37° C.) was 25 µg/mL. It also gave an MIC (Aeromonas hydrophila; [18]) of 12.5 µg/mL and an MIC (Enterobacter cloacae; [19]) of 50 µg/mL.

“PRT894 (NLDDCASSPCDSGTCLDKIDGYECACEPGYTGSMCN; listed as Homo sapiens)” showed an MIC (Pseudomonas aeruginosa; [11]) of 12.5 µg/mL, an MIC (Proteus mirabilis; [12]) of 12.5 µg/mL and an MIC (E. coli DH5α) of 12.5 µg/mL. For the same substance, the MIC (Klebsiella pneumonia; [13]) was 50 µg/mL, the MIC (Serratia marcescens; [14]) was 12.5 µg/mL and the MIC (Proteus vulgaris; [15]) was 50 µg/mL. The MIC (Moraxella catarrhalis; [16]) was 50 µg/mL, the MIC (Citrobacter diversus; [17]) was 12.5 µg/mL and the MIC (E. coli BL21; 10 h cultivation at 37° C.) was 50 µg/mL. It also gave an MIC (Aeromonas hydrophila; [18]) of 50 µg/mL and an MIC (Enterobacter cloacae; [19]) of 12.5 µg/mL.

In the case of “PRT1011 (RAPSCGFHHCHHGGLCLPSPKPGFPPRCACLSGYGGPDCL; listed as Homo sapiens)”, the MIC (Pseudomonas aeruginosa; [11]) is reported as 12.5 µg/mL, the MIC (Proteus mirabilis; [12]) is reported as 25 µg/mL and the MIC (E. coli DH5α) is reported as 12.5 µg/mL. It also gave an MIC (Klebsiella pneumonia; [13]) of 50 µg/mL, an MIC (Serratia marcescens; [14]) of 25 µg/mL and an MIC (Proteus vulgaris; [15]) of 50 µg/mL. It also gave an MIC (Moraxella catarrhalis; [16]) of 12.5 µg/mL, an MIC (Citrobacter diversus; [17]) of 25 µg/mL and an MIC (E. coli BL21; 10 h cultivation at 37° C.) of 50 µg/mL. The MIC (Aeromonas hydrophila; [18]) was 50 µg/mL and the MIC (Enterobacter cloacae; [19]) was 12.5 µg/mL.
